# Structures can show the parent of a compound that is named as a salt.
# Legend:
# Assay type in all cases: physicochemical
# [1] = polymorph stability / interconversion on exposure to relative humidity; settings: for stability at RH greater than 60%: experiments at 75% and 87% relative humidity
# Source text: Upon filtering off the Form C which precipitates out as a white salt, the Form C salt may be air dried.
# Experiments at 23% and 43% RH have verified this phenomena.
# [2] = stability of the hydrate under vacuum at moderate temperature; settings: for stability (in words): ambient conditions / low humidity
# Source text: The L-tartrate salt exists as three possible forms: two anhydrous forms and one hydrate form.
# hygroscopicity = assay: hygroscopicity
# Method: Further, the Form B forms orthorhombic crystals belonging to the P2(1)2(1)2(1) space group. Form B is further characterized in having an onset of melting at about 215° C. as measured by differential scanning calorimetry at a heating rate of 5 degrees per minute. […] In addition, Form B has a hygroscopicity of approximately 0.2% at 90% relative humidity.
# [3] = solid-state stability and excipient compatibility
# aqueous solubility = settings: water, pH 3.3, water
# [4] = native pH in aqueous solution
smiles,measurement,setting,value
"O=C(O)C(O)C(O)C(=O)O.c1cnc2cc3c(cc2n1)C1CNCC3C1 [Form C, L-Tartrate Saft Form C of 5,8,14-Triazatetracyclo[10.3.1.0^2,11.0^4,9]-hexadeca-2(11),3,5,7,9-pentaene (Form C)]",stability at RH greater than 60%,[1],relatively stable over a several month period
same,behaviour on exposure to less than 50% RH,"[1]; less than 50% RH, experiments at 23% and 43% RH",more slowly dehydrate
same,time the hydrate maintains its one equivalent of water under vacuum,[2]; 45° C. vacuum oven,≥ 24 h
same,stability (in words),[2],relatively stable under ambient conditions
same,time after which the hydrate loses water and converts to anhydrous Form B,[2]; under vacuum at moderate temperatures,≥ 48 h
"c1cnc2cc3c(cc2n1)C1CNCC3C1 [L-tartrate salt, L-tartrate salt of 5,8,14-triazatetracyclo[10.3.1.0^2,11.0^4,9]-hexadeca-2(11),3,5,7,9-pentaene]",hygroscopicity (in words),hygroscopicity,very slightly hygroscopic
same,solid-state stability,[3],high solid-state stability
same,inertness towards excipients,[3]; common excipients,relative inertness towards common excipients
"c1cnc2cc3c(cc2n1)C1CNCC3C1 [Form B, L-Tartrate Salt of 5,8,14-Triazatetracyclo[10.3.1.0^2,11.0^4,9]-hexadeca-2(11),3,5,7,9-pentaene (Anhydrous Polymorph, Form B)]",solubility,aqueous solubility,~156 mg/mL
same,native pH in aqueous solution,[4],about 3.3
same,hygroscopicity,hygroscopicity; at 90% relative humidity,approximately 0.2%
same,stability at RH greater than 60%,[1],relatively stable over a several month period
same,time for conversion of Form B to Form C,[1]; exposed to 100% RH,≤ 2 days
same,stability (in words),[2],most stable of the polymorphs at low humidity
"O=C(O)C(O)C(O)C(=O)O.c1cnc2cc3c(cc2n1)C1CNCC3C1 [Form A′, D-tartrate salt of 5,8,14-triazatetracyclo[10.3.1.0^2,11.0^4,9]-hexadeca-2(11),3,5,7,9-pentaene]","hygroscopicity compared with the corresponding Form A, B or C of the L-tartrate salt",hygroscopicity,the same

# Reference: patent US7265119B2, “Tartrate salts of 5,8,14-triazatetracyclo[10.3.1.02,11.04.9]-hexadeca-2(11),3,5,7,9-pentaene and pharmaceutical compositions thereof” (Pfizer Inc, priority 2001, dated 2007)
